Measured values as given in patent US20200281928A1, “VITAMIN B1 IN HIGH DOSES FOR USE IN THE MEDICAL TREATMENT OF MOTOR SYMPTOMS OF SOME SPORADIC NEURODEGENERATIVE DISEASES, OF GENETIC ORIGIN, AND OF CLUSTER HEADACHE AND OF MIGRAINE HEADACHE” (priority 2017, published 2020).
Where two headings read alike, the source gives them in different places.

Experiments:
[1] = test system: Cortico-Basal Degeneration; settings: for Improvement of motor symptoms: UPDRS portion III, two months of therapy; for UPDRS portion III after therapy: three 100 mg/ml vials intramuscularly per week plus low doses of other group b vitamins and magnesium, two months, scale 0-56
Experimental: We treated two patients affected by such pathology, two men with three vials intramuscularly per week of vitamin B1. One vial included 100 mg/ml of thiamine. The injection was performed in the three odd or even midweek days. The dose was determined empirically based upon the disease progression rapidity.
Furthermore low doses of all other vitamins of the group b, including folic acid, 150 mg of magnesium citrate and 150 mg of magnesium malate, were associated to the treatment.
The patients were evaluated with UPDRS (Unified Parkinson's Disease Rating Scale), scale validated for all Parkinson forms. Herein the scores of third portion (portion III) of this scale will be shown, illustrating the motor problems found by the examiner. […] Both of them were evaluated before starting the treatment and two months after the treatment beginning.
(§1) The diagnoses were made by Italian primary neurological centres based upon anamnestic, clinical, evolutionary, neuroradiological and neurophysiological data.

Dystonia 1 (DYT1) = settings: for Fahn-Mardsen motion scale after treatment: scale 0-120; for Fahn-Mardsen disability scale after treatment: scale 0-30
Experimental: The studied patients were two, a person and a person, parent and child. The disease is genetic and has a transmission of dominant type. The diagnosis was made in primary neurological centres based upon anamnestic, clinical and laboratory data.
They were evaluated with Fahn-Mardsen scale of dystonia (Fahn-Mardsen Rating Scale). This scale consists of two sub-scales: 1) motion scale 2) disability scale. The first one ranges from 0 (no motion disorder) to 120 (maximum intensity and extension of the motion dystonic disorder). The second one ranges from 0 (no disability) to 30 (maximum disability)

[2] = test system: Essential Tremor (also called intention tremor); settings: for improvement of TETRAS ADL Subscale / improvement of TETRAS Performance subscale / TETRAS ADL Subscale score after treatment / TETRAS Performance subscale score after treatment: two 100-mg/ml vials intramuscularly per week, two months; for TETRAS ADL Subscale score after treatment: scale 0-48; for TETRAS Performance subscale score after treatment: scale 0-64
Experimental: Two patients were studied affected by such pathology, a person and a person. The intention tremor, differently from tremor in Parkinson disease appears and increases with muscular activity. The diagnosis was made by neurologists expert in the motion disorders based upon the clinical, neuroradiological and electrophysiological data.
Before starting the treatment, both patients were evaluated with a validated scale called TETRAS (TRG ESSENTIAL TREMOR RATING ASSESSMENT SCALE). They were re-evaluated with the same scale after two months of treatment with two 100-mg/ml vials of thiamine (vitamin B1) intramuscularly performed on Monday and on Thursday morning with the same scale.
In turn, this scale is constituted by two sub-scales. The first one, Activities of Daily Living Subscale (ADL Subscale) measures the impact the tremor has in the activities of daily life and it has a score ranging from 0 (no impact) to 48 (maximum impact).
The second one, Performance Subscale measures the width and the extension of tremor on the body and it has a score ranging from 0 (no tremor) to 64 (tremor with wide shocks and widespread).

[3] = test system: Cluster Headache (also called Horton headache); settings: person
Experimental: The patient was evaluated with Cluster Headache Quality of Life (CHQ) scale before starting the treatment and every 15 days after starting the treatment which started in December 2016. The score of this scale ranges from 28 (absence of symptoms) to 140 (maximum deficit, maximum negative influence in daily life activities).
The patient started the therapy with 250 mg of thiamine orally, by increasing by 250 mg every three days.

[4] = test system: Progressive Supranuclear Paralysis; settings: for Improvement of motor symptoms: UPDRS portion III, two months of therapy; for UPDRS portion III after therapy: five 100 mg/ml vials intramuscularly per week plus low doses of other group b vitamins and magnesium, two months, scale 0-56
Experimental: We treated […] affected by such pathology, two women and two men with five vials intramuscularly per week of vitamin B1. A vial included 100 mg/ml of thiamine. The injection was performed each morning for the first five days of the week. The dose was determined empirically based upon the disease progression rapidity. Furthermore, low doses of all other vitamins of the group b, including folic acid, 150 mg of magnesium citrate and 150 mg of magnesium malate, were associated to the treatment. The patients were evaluated with UPDRS (Unified Parkinson's Disease Rating Scale), scale validated for all Parkinson forms. Herein the scores of third portion (portion III) of this scale will be shown, illustrating the motor problems found by the examiner.
as §1

Migraine Headache = settings: for MIDAS after treatment: after 30 days, scale 0-25
Experimental: Migraine headache is the headache form characterized by a recurrent pain involving one only side of the head. The pulsating headache can last from four hours until three days and it is accompanied by nausea, vomiting, photophobia. The causes are poorly known. We studied two female patients starting from January 2017.
The patients were evaluated with Migraine Disability Assessment Test (MIDAS) evaluation scale before starting the treatment and every 30 days after starting the treatment, which started in January 2017. The score of this scale ranges from 0 (absence of symptoms) to 25 (maximum disability, maximum negative influence in the daily life activities).
The thiamine dose was 300 mg orally each morning.
The thiamine dose was 500 mg every morning orally.

Huntington's Chorea = settings: one patient, two vials intramuscularly 100 mg/ml per week, two months
Experimental: We evaluated and treated one single patient. The disease is genetic and it has dominant transmission. The diagnosis was made in primary neurological centres based upon anamnestic, clinical and laboratory data. […] The first symptoms appeared about six years ago.
The patient, 56 years […], was evaluated with Unified Huntington's Disease Rating Scale (UHDRS). The scale consists of 31 items and ranges from 0 scores (absence of choreic motions) to 124 scores (maximum intensity and extension on the body of the involuntary motions of choreic type).
The first evaluation, before treatment was performed on Jun. 7, 2016, the second one, after two months of treatment with two vials intramuscularly 100 mg/ml per week was performed on Sep. 9, 2016.

[5] = patient P1, two months of treatment
[6] = patient P2, two months of treatment
[7] = patient P2, two months of treatment, before treatment 4

`Cc1ncc(C[n+]2csc(CCO)c2C)c(N)n1` [vitamin B1, thiamine] was tested, and the “Improvement of motor symptoms” value ([1]; patient N1 (person five)) was 57.6%, the “UPDRS portion III after therapy” value ([1]; patient N1 (person five), before therapy 26) was 15 scores and the “Improvement of motor symptoms” value ([1]; patient N2 (person six)) was 15.3%. For the same molecule, the “UPDRS portion III after therapy” value ([1]; patient N2 (person six), before therapy 35) was 31 scores, the “improvement of disability scale” value (Dystonia 1 (DYT1); [5]) was 35.8% and the “improvement of motion scale” value (Dystonia 1 (DYT1); [5]) was 53.0%. The “Fahn-Mardsen motion scale after treatment” value (Dystonia 1 (DYT1); patient P1, two months of treatment (dose not given), before treatment 66) was 31 scores, the “Fahn-Mardsen disability scale after treatment” value (Dystonia 1 (DYT1); patient P1, two months of treatment, before treatment 14) was 9 scores and the “improvement of disability scale” value (Dystonia 1 (DYT1); [6]) was 50.0%. The “improvement of motion scale” value (Dystonia 1 (DYT1); [6]) was 50.0%, the “Fahn-Mardsen disability scale after treatment” value (Dystonia 1 (DYT1); [7]) was 2 scores and the “Fahn-Mardsen motion scale after treatment” value (Dystonia 1 (DYT1); [7]) was 2 scores. For the same molecule, the “improvement of TETRAS ADL Subscale” value ([2]; patient N1) was 75%, the “improvement of TETRAS Performance subscale” value ([2]; patient N1) was 74.4% and the “TETRAS ADL Subscale score after treatment” value ([2]; patient N1, before treatment 16) was 4 scores. The “TETRAS Performance subscale score after treatment” value ([2]; patient N1, before treatment 19.5) was 5 scores, the “improvement of TETRAS ADL Subscale” value ([2]; patient N2) was 65.3% and the “improvement of TETRAS Performance subscale” value ([2]; patient N2) was 68.2%. For the same molecule, the “TETRAS Performance subscale score after treatment” value ([2]; patient N2, before treatment 22) was 7 scores, the “TETRAS ADL Subscale score after treatment” value ([2]; patient N2, before treatment 23) was 8 scores and the “alteration in the common laboratory examinations” value ([2]; two Essential Tremor patients, long-term treatment never suspended) was “nor any alteration in the common laboratory examinations”. For the same molecule, the side effects ([2]; two Essential Tremor patients, long-term treatment never suspended (intramuscular vials or 4 grams each day orally)) was “no any side effect”, the “result with the equivalent dose orally” value ([2]; two Essential Tremor patients, 4 grams each day of vitamin B1 orally for some months instead of the vials) was “keeping the same results of the vials” and the “time from the beginning until the headache attacks wholly disappeared” value ([3]; at the dose of 750 mg per day orally, printed as within about 8 days) was no more than 8 days. The “effect of an attempt of interrupting the treatment” value ([3]; oral thiamine interrupted) was “quick re-appearance of headache episodes”, the “outcome of symptoms under continued treatment” value ([3]; oral thiamine, maintained by continuing the treatment (more than five months)) was “complete regression of the symptoms” and the CHQ after treatment ([3]; thiamine orally, 250 mg increased by 250 mg every three days to 750 mg per day, after 15 days, before treatment 82, scale 28 (absence of symptoms) to 140) was 28 scores. The “Improvement of motor symptoms” value ([4]; patient N1 (person two)) was 20.3%, the “UPDRS portion III after therapy” value ([4]; patient N1 (person two), before therapy 31) was 25 scores and the “Improvement of motor symptoms” value ([4]; patient N2 (person seven)) was 19.9%. For the same molecule, the “UPDRS portion III after therapy” value ([4]; patient N2 (person seven), before therapy 37) was 30 scores, the “Improvement of motor symptoms” value ([4]; patient N3 (person twelve)) was 32.5% and the “UPDRS portion III after therapy” value ([4]; patient N3 (person twelve), before therapy 23) was 16 scores. The “Improvement of motor symptoms” value ([4]; patient N4) was 21.8%, the “UPDRS portion III after therapy” value ([4]; patient N4, before therapy 28) was 22 scores and the “Improvement of motor symptoms” value ([4]; patient N5) was 26.6%. For the same molecule, the “UPDRS portion III after therapy” value ([4]; patient N5, before therapy 28) was 20 scores, the “days of treatment after which the regression of the episodes was already present” value (Migraine Headache; migraine patients on oral thiamine, maintained by continuing the same treatment) was 7 days and the MIDAS after treatment (Migraine Headache; patient N1, 300 mg orally each morning, before treatment 19) was 0 scores. The MIDAS after treatment (Migraine Headache; patient N2 (person ten), 500 mg every morning orally, before treatment 20) was 0 scores, the “improvement of UHDRS” value (Huntington's Chorea) was 27.5% and the UHDRS after treatment (Huntington's Chorea; before treatment 62, scale 0-124) was 45 scores.
